Settings: 298.2 K

O=C(c1ccccc1)c1ccc(O)cc1O
Settings | solubility (mole fraction)
in 2-ethoxyethanol | 0.0308
in 2-isopropoxyethanol | 0.0333
in chlorobenzene | 0.0044
in cyclohexane | 5.07e-05
in diisopropyl ether | 0.00744
in ethylbenzene | 0.00408
in isooctane | 3.31e-05
in m-xylene | 0.00415
in methylcyclohexane | 6.92e-05
in n-butanol | 0.0109
in n-heptane | 3.82e-05
in n-heptanol | 0.018
in n-hexane | 3.26e-05
in n-hexanol | 0.0161
in n-octane | 4.43e-05
in n-octanol | 0.0183
in n-pentanol | 0.0125
in o-xylene | 0.00429
in p-xylene | 0.00448
in sec-butanol | 0.0103
in toluene | 0.00364

— BigSolDB 2.1
